# Source: patent US12475972B2, “Prediction system for identifying key heterogeneous molecules driving tumor metastasis” (NANJING HANWEI PUBLIC HEALTH TECHNOLOGY CO., LTD., priority 2021, dated 2025)
# Legend:
# [1] = test system: BGC823 cells and BGC823-LPC1; experiment: Transwell experiment after FASN inhibitor EGCG; format: cell-based; settings: different concentrations, 24 hours
# Protocol: Further validation of the relationship between FASN and gastric cancer metastasis using transwell and scratch experiments: BGC823 cells and BGC823-LPC1 (primary cells of residual lung metastases in the animal model SP141 and JP3 combined intervention group) were treated with different concentrations of FASN inhibitor EGCG for 24 hours, followed by transwell experiments. […] The inhibition rate of perforation cells was similar in both types of cells (FIG. 20B). […] As shown in FIGS. 20A-20D, intervention on FASN can inhibit the migration of gastric cancer cells.
# [2] = test system: FASN; experiment: Immunoblotting of FASN and FAK after EGCG; format: cell-based; settings: dose-response
# [3] = test system: BGC823-LPC1; experiment: BGC823-LPC1 passive metastasis model; format: in vivo, mice; settings: compared to the solvent control group
# Protocol: A passive metastasis model was constructed by extracting primary cells BGC823-LPC1 from residual lung metastases after joint intervention on JWA and MDM2. On the second day after injecting cells into the tail vein of the model mice, they were grouped and administered. During the medication period, they were weighed on time. At the end of the modeling, the lung wet weight of each group of mice was measured, and the situation of lung metastases was observed.
# [4] = test system: FASN; experiment: Protein mass spectrometry of residual lung metastatic lesions; format: in vivo, mice
# Source text: On the basis of the above model, primary cells were extracted from the residual gastric cancer cells metastatic foci of the lungs of EGCG-treated mice, named BGC823-LPC2. Firstly, protein mass spectrometry analysis was continued on the residual metastatic lesions in the lungs of the EGCG group and the combined treatment group with SP141 and JP3, with a focus on observing the protein expression changes of each independent molecule identified in 1.4 above.
# [5] = test system: BGC823-LPC2 cells; experiment: BGC823-LPC2 passive metastasis model; format: in vivo, nude mice; settings: compared with the solvent control group
# Source text: On the basis of the positive results obtained in the cell model, the animal model was then validated. A passive metastasis model was constructed using BGC823-LPC2 cells injected through the tail vein of nude mice. The mice were randomized on the second day and given control solvent, EGCG, WP-1130 alone, and WP-1130 plus sh-PFN1 lentivirus in a sequential manner.
# [6] = test system: MGC803; experiment: CCK-8 half inhibitory concentration on gastric cancer cells; format: cell-based; settings: CCK-8, MGC803
# [7] = test system: AGS; experiment: as above; format: cell-based; settings: CCK-8, AGS
# [8] = test system: MFC; experiment: as above; format: cell-based, mouse; settings: CCK-8, MFC
# [9] = test system: SGC7901; experiment: as above; format: cell-based; settings: CCK-8, SGC7901
# [10] = test system: BGC823; experiment: as above; format: cell-based; settings: CCK-8, BGC823
# [11] = test system: gastric cancer cells BGC823, SGC7901, and MFC; experiment: Perforated cell count (transwell) after SP141; format: cell-based; settings: different doses, 24 hours
# [12] = test system: gastric cancer cells BGC823, SGC7901, and MFC; experiment: Cell scratch assay after SP141; format: cell-based
# [13] = test system: gastric cancer cell line MFC; experiment: MFC abdominal implant metastasis model; format: in vivo, mouse
# Protocol: The mouse-derived gastric cancer cell line MFC were selected to construct an abdominal implant metastasis model. On the second day of cell inoculation, different doses of SP141 were administered intraperitoneally for intervention. The modeling was completed and the number of abdominal metastatic nodules was recorded.
# [14] = test system: MDM2; experiment: MDM2 and JWA protein expression in BGC823 cells after SP141; format: cell-based; settings: BGC823, 0, 0.25, 0.5 μM, 24 hours
# Protocol: With a cell model, the mutual regulation between JWA and MDM2 proteins was examined. […] Thereafter, 0, 0.25, 0.5 μM SP141 were used to inhibit the expression level of MDM2 in gastric cancer cells BGC823 for 24 hours. […] Thus, it can be seen that as shown in FIGS. 9A-9C, in gastric cancer, JWA and MDM2 have no mutually regulatory relationship at the protein and mRNA levels, and their respective biological functions on gastric cancer cells are independent.
# [15] = test system: AGS cells; experiment: Transwell assay in AGS cells, Flag-JWA plasmid and SP141; format: cell-based; settings: compared to the control group
# Source text: Thus, as shown in FIGS. 10A-10B, the combined intervention of JWA and MDM2 has a synergistic inhibitory effect on gastric cancer cell migration.
# [16] = test system: BGC823-luc; experiment: BGC823-luc tail vein passive metastasis model, in vivo fluorescence imaging; parameters: species or system nude mice
# Protocol: In an in vivo model, fluorescent labeled gastric cancer cells BGC823-luc were injected into the tail vein of nude mice to construct a passive metastasis model of gastric cancer. Drug intervention began on the second day after cell inoculation (FIG. 11A). […] The weight of the mice of the drug intervention group was relatively stable and in good condition (FIG. 11B). […] Thus, as shown in FIGS. 11A-11D, the joint intervention of JWA and MDM2 has a synergistic inhibitory effect on gastric cancer metastasis in vivo.
# [17] = test system: B16F10 melanoma cells; experiment: B16F10 tail vein passive lung metastasis model; format: in vivo, mice; settings: different doses, dose-response
# Protocol: A passive metastasis model was constructed by injecting B16F10 melanoma cells into the tail vein of mice. On the second day of cell inoculation, the mice were grouped, and Ctrl-R or JP1 peptides were injected intraperitoneally for intervention. […] Note: Ctrl-R peptide and JP1 peptide can be found in Cui J, et al. Theranotics 2020; 10 (18): Recorded in 8036-8050.
# A passive metastatic mouse model was constructed using B16F10 cells. On the second day of cell inoculation, different doses of SP141 were used for intervention. At the end of the modeling, the number of metastatic nodules in the lungs was recorded. As shown in FIGS. 29A-29D, SP141 can inhibit the lung metastasis of melanoma in mice, and there is a dose-response relationship. […] Conclusion: inhibition of MDM2 by SP141 can effectively reduce in vivo metastasis of melanoma in mice.
# The mouse model validation was further carried out on the basis of cell model validation. A lung metastasis model with B16F10 cell tail vein injection was constructed, and on the second day, the mice were randomly grouped according to their body weight for drug intervention. As shown in FIGS. 31A-31F, the joint intervention of JWA and MDM2 has a synergistic inhibitory effect on the in vivo metastasis of melanoma. […]
# [18] = test system: MDM2; experiment: MDM2 and JWA protein expression in B16F10 cells after SP141; format: cell-based; settings: B16F10, 0, 0.25, 0.5 μM, 24 hours
# Protocol: The relationship between the expression levels of JWA and MDM2 genes and the prognosis of melanoma population was analyzed using the TCGA database. […] Meanwhile, melanoma cells B16F10 were treated respectively with 0, 0.25, 0.5 μM SP141 for 24 hours, and the protein expression levels of MDM2 and JWA were measured.
# [19] = test system: BGC823-LPC2; experiment: Transwell experiment in BGC823-LPC2 cells; format: cell-based; settings: treated 8 hours, dose-response
# Protocol: To verify the relationship between USP9X and gastric cancer metastasis, cultured BGC823 LPC2 cells were first treated with USP9X inhibitor WP-1130 (existing product) for 8 hours before a transwell experiment. […] Thus, it can be seen that inhibiting the expression of USP9X can effectively reduce the migration of gastric cancer cells.
# For the heterogeneous molecule PFN1, a low expression lentiviral plasmid sh-PFN1 was constructed due to the lack of commercialized inhibitor compounds. Transwell experiments were performed after transfection of sh-con and sh-PFN1 in BGC823-LPC2 for 48 hours.
# [20] = test system: USP9X; experiment: Immunoblotting of USP9X and p-AKT after WP-1130; format: cell-based; settings: dose-response
# [21] = test system: BGC823 LPC2 cells; experiment: Scratch experiment after WP-1130; format: cell-based
smiles,measurement,setting,value
O=C(O[C@@H]1Cc2c(O)cc(O)cc2O[C@@H]1c1cc(O)c(O)c(O)c1)c1cc(O)c(O)c(O)c1 [EGCG],number of perforation cells,[1],significantly reduced
same,expression level of FASN protein,[2],reduced
same,transfer related protein FAK,[2],correspondingly reduced
same,lung wet weight,[3],significant decrease
same,number of metastatic foci,[3],significant decrease
same,rest of the proteins inhibited,[4]; other independent molecules identified in 1.4,less than 20%
same,FASN inhibited,"[4]; residual lung metastatic lesions, vs SP141 and JP3 combined treatment group",22%
same,lung metastatic foci,[5],did not decrease significantly
same,lung wet weight,[5],not obvious
CCCCCCCCCCC[C@@H](C[C@@H]1OC(=O)[C@H]1CCCCCC)OC(=O)[C@H](CC(C)C)NC=O [Orlistat],lung wet weight,[3],significant decrease
same,number of metastatic foci,[3],significant decrease
COc1ccc2[nH]c3c(-c4cccc5ccccc45)nccc3c2c1 [SP141],IC50,[6],0.616 µM
same,IC50,[7],0.335 µM
same,IC50,[8],0.345 µM
same,IC50,[9],0.687 µM
same,IC50,[10],0.599 µM
same,number of perforated cells,[11],gradually decreased with increasing dose
same,migration rate of the cells,[12],significantly slowed down
same,number of abdominal metastatic nodules compared with the control group,[13]; 40 mg/kg group,statistically significant
same,MDM2 protein levels in residual tumor tissues,"[13]; 40 mg/kg group vs control, immunoblotting",significant decrease
same,number of gastric cancer abdominal implantation metastases,[13]; different doses intraperitoneally,could inhibit the number of gastric cancer abdominal implantation metastases
same,protein expression level of JWA,[14],no significant change
same,protein expression level of MDM2,[14],decreased with increasing SP141 dose
same,number of cell perforations,[15],decrease
same,fluorescence intensity of lung metastases,[16],weaker than that of the control group
same,lung metastasis of melanoma,[17],can inhibit
same,JWA protein expression level,[18],no significant change
same,protein expression level of MDM2,[18],decreased with increasing SP141 dose
CCC[C@H](NC(=O)/C(C#N)=C/c1cccc(Br)n1)c1ccccc1 [WP-1130],number of cell perforations,[19],significantly inhibit
same,expression of USP9X protein,[20],reduced
same,transfer related protein p-AKT,[20],correspondingly reduced
same,scratch experiment,[21],consistent with those of the small chamber perforation experiment
same,lung metastatic foci,[5],decreased significantly
same,lung wet weight,[5],decreased significantly
